# Experimental data reported in patent US12679878B2, “CRF2 receptor agonists and their use in therapy” (SANOFI, priority 2020, dated 2026).
# Where two headings read alike, the source gives them in different places. Starred links: 1 amine or outer side, 2 acyl side, 3 side chain; linkers in the order of their positions; H or OH if unused. Non-standard residues stand in square brackets, D forms with d. Residues, ends and D or L forms follow the SMILES beside them. Groups on a side chain read outwards from the residue. No end group written: not given here. *: point of attachment. C18 diacid = O=C(O)CCCCCCCCCCCCCCCCC(=O)*; γGlu = O=C(O)[C@H](CCC(=O)[*:2])N[*:1]; AEEA = NCCOCCOCC(=O)O; Aib = CC(C)(N)C(=O)O
# T1: human CRF2α receptor (Homo sapiens, UniProt Q13324)
# T1 construct: expressed in transfected cells; host or cells: TeloHEAC
# T1 sequence (Q13324 1-411): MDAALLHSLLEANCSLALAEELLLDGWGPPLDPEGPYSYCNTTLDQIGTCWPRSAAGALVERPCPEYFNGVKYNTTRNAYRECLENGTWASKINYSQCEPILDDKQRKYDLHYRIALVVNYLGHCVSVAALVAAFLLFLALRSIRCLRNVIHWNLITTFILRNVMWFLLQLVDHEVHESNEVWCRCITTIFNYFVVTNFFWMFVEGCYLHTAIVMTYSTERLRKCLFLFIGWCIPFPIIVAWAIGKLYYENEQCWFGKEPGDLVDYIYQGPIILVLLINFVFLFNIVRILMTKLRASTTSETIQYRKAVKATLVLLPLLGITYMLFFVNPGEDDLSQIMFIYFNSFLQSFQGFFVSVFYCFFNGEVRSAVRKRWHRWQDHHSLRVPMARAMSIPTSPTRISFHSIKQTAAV
# T2: endogenous human CRF2 (NCI-H82 cells) (human, UniProt Q13324 20-411)
# T2 sequence (looked up): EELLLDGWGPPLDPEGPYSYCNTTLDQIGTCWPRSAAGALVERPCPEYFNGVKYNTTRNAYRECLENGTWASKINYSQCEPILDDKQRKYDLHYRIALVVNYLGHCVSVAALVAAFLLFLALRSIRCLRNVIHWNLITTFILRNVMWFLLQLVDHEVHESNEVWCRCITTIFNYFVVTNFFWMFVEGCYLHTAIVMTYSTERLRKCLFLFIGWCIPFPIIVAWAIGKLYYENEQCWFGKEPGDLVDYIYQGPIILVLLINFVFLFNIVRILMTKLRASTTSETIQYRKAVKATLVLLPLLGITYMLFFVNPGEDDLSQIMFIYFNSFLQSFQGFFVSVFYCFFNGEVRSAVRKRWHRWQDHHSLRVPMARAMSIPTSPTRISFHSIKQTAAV
# B1: peptide of SEQ ID NO: 141 (peptide)
# peptide: IVLSLD[dV]PIKLK([AEEA-AEEA-γGlu-C18 diacid])QILLKQARQK[Aib]QRAQAEKNKRILERV-NH2
# modifications: N-terminus assumed
# SMILES: CC[C@H](C)[C@H](N)C(=O)N[C@H](C(=O)N[C@@H](CC(C)C)C(=O)N[C@@H](CO)C(=O)N[C@@H](CC(C)C)C(=O)N[C@@H](CC(=O)O)C(=O)N[C@@H](C(=O)N1CCC[C@H]1C(=O)N[C@H](C(=O)N[C@@H](CCCCN)C(=O)N[C@@H](CC(C)C)C(=O)N[C@@H](CCCCNC(=O)COCCOCCNC(=O)COCCOCCNC(=O)CC[C@H](NC(=O)CCCCCCCCCCCCCCCCC(=O)O)C(=O)O)C(=O)N[C@@H](CCC(N)=O)C(=O)N[C@H](C(=O)N[C@@H](CC(C)C)C(=O)N[C@@H](CC(C)C)C(=O)N[C@@H](CCCCN)C(=O)N[C@@H](CCC(N)=O)C(=O)N[C@@H](C)C(=O)N[C@@H](CCCNC(=N)N)C(=O)N[C@@H](CCC(N)=O)C(=O)N[C@@H](CCCCN)C(=O)NC(C)(C)C(=O)N[C@@H](CCC(N)=O)C(=O)N[C@@H](CCCNC(=N)N)C(=O)N[C@@H](C)C(=O)N[C@@H](CCC(N)=O)C(=O)N[C@@H](C)C(=O)N[C@@H](CCC(=O)O)C(=O)N[C@@H](CCCCN)C(=O)N[C@@H](CC(N)=O)C(=O)N[C@@H](CCCCN)C(=O)N[C@@H](CCCNC(=N)N)C(=O)N[C@H](C(=O)N[C@@H](CC(C)C)C(=O)N[C@@H](CCC(=O)O)C(=O)N[C@@H](CCCNC(=N)N)C(=O)N[C@H](C(N)=O)C(C)C)[C@@H](C)CC)[C@@H](C)CC)[C@@H](C)CC)C(C)C)C(C)C
# B2: peptide of SEQ ID NO: 143 (peptide)
# peptide: FTLSLDVPTKIK([AEEA-AEEA-γGlu-C18 diacid])QILLKQEKQKKQRQKAKTNKQILERV-NH2
# modifications: N-terminus assumed
# SMILES: CC[C@H](C)[C@H](NC(=O)[C@H](CCC(N)=O)NC(=O)[C@H](CCCCN)NC(=O)[C@H](CC(N)=O)NC(=O)[C@@H](NC(=O)[C@H](CCCCN)NC(=O)[C@H](C)NC(=O)[C@H](CCCCN)NC(=O)[C@H](CCC(N)=O)NC(=O)[C@H](CCCNC(=N)N)NC(=O)[C@H](CCC(N)=O)NC(=O)[C@H](CCCCN)NC(=O)[C@H](CCCCN)NC(=O)[C@H](CCC(N)=O)NC(=O)[C@H](CCCCN)NC(=O)[C@H](CCC(=O)O)NC(=O)[C@H](CCC(N)=O)NC(=O)[C@H](CCCCN)NC(=O)[C@H](CC(C)C)NC(=O)[C@H](CC(C)C)NC(=O)[C@@H](NC(=O)[C@H](CCC(N)=O)NC(=O)[C@H](CCCCNC(=O)COCCOCCNC(=O)COCCOCCNC(=O)CC[C@H](NC(=O)CCCCCCCCCCCCCCCCC(=O)O)C(=O)O)NC(=O)[C@@H](NC(=O)[C@H](CCCCN)NC(=O)[C@@H](NC(=O)[C@@H]1CCCN1C(=O)[C@@H](NC(=O)[C@H](CC(=O)O)NC(=O)[C@H](CC(C)C)NC(=O)[C@H](CO)NC(=O)[C@H](CC(C)C)NC(=O)[C@@H](NC(=O)[C@@H](N)Cc1ccccc1)[C@@H](C)O)C(C)C)[C@@H](C)O)[C@@H](C)CC)[C@@H](C)CC)[C@@H](C)O)C(=O)N[C@@H](CC(C)C)C(=O)N[C@@H](CCC(=O)O)C(=O)N[C@@H](CCCNC(=N)N)C(=O)N[C@H](C(N)=O)C(C)C
# Experiments:
# [1] = biological target: T1, human CRF2α receptor; experiment: cAMP agonism at human CRF2 α receptor in TeloHEAC cells (Example 7); format: cell-based; conditions: cAMP HTRF, TeloHEAC cells stably expressing human CRF2 α
# Summary of the method: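 Cryopreserved cells are thawed, washed and resuspended in IBMX-containing (2 mM) HEPES-buffered HBSS with or without 0.1% HSA. Compound incubation runs 30 min at room temperature with 2000 cells per well, then cAMP is measured by time-resolved FRET. Potency is expressed as EC50, efficacy relative to urocortin 2 at 1000 nM.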
# [2] = system: rat CRF2R α receptor; experiment: cAMP agonism at rat CRF2R α receptor in A7R5 rat aortic smooth muscle cells (Example 8); format: cell-based; conditions: cAMP HTRF, A7R5 rat aortic smooth muscle cell line, 0% HSA
# Summary of the method: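 Thawed cryopreserved A7R5 cells in HBSS/20 mM HEPES (0 or 0.1% HSA) with 2 mM IBMX, 2000 cells/well, were exposed to compound for 30 min at room temperature. cAMP was read by HTRF (665/620 nm ratio) after 1 h with lysis reagents. Activity was normalised to 1000 nM urocortin 2 as 100%, and EC50 was taken as the concentration giving 50% of maximal activation.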
# [3] = Chemical stability, purity loss by UPLC-UV after 28 days at 40° C. vs 5° C., pH 4.5 acetate buffer (Example 12); format: physicochemical; conditions: 28 days 40° C. vs 5° C.; pH 4.5, 20 mM acetate buffer; 300 μM
# Experimental: The chemical stability of the compounds was assessed by storing the compounds under various conditions and then determining the loss of purity by UPLC-UV.
# Prior to measuring the chemical stability of a batch of test compound, the purity of the compound was determined through UPLC/MS. For stability testing the target concentration was 300 μM pure compound. Therefore, solutions from solid samples were prepared in a pH 4.5, 20 mM acetate buffer system with a concentration of 300 μM compound based on the previously determined % purity:
# At the starting point, UPLC-UV was performed by injection of 2 μl of the undiluted sample. Aliquots were then stored for 28 days at temperatures of 5 and 40° C. […] Then 2 μl samples of the undiluted supernatant were analysed with UPLC-UV. The chemical stability was calculated by the equation: [(purity after 28 days at 5° C.)−(purity after 28 days at 40° C.)]/(purity after 28 days at 5° C.)]×100%. The purity was calculated as: [(peak area compound)/(total peak area)]×100%.
# [4] = Solubility in buffer systems by UPLC-UV (Example 13); format: physicochemical; conditions: pH 4.5, Solubility in Buffer B [mg/ml]
# Summary of the method: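 The supernatant was diluted 1:10 and quantified by UPLC-UV peak area against a reference standard curve, correcting for sequence-based extinction coefficients.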
# [5] = Physical stability, Thioflavin T fibrillation assay (Example 14); format: physicochemical; conditions: 3 mg/ml, 37° C. shaking
# Summary of the method: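 Compounds at 3 mg/ml final in buffer were stressed at 37° C by repeated cycles of 10 s shaking at 960 rpm and 50 s rest. ThT fluorescence was read every 20 minutes in eight replicates, with fluorescence increase and lag time indicating fibrillation tendency.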
# [6] = Physical stability, dynamic light scattering assay (Example 15); format: physicochemical; conditions: Buffer D (20 mM phosphate, pH 7.4)
# Experimental: The physical stability of the compounds was also assessed using a dynamic light scattering assay.
# In the present study, the physical stability of test compounds was assessed by determining the apparent hydrodynamic radius (Rh), the scattering intensity (I) and mass contribution (M) after synthesis (0 weeks) and after storage for 4 weeks at 40° C.
# For each solution of test compound, the hydrodynamic radius Rh and the diffusion constant D (related via the Stokes-Einstein equation) were determined as an average over triplicates. Both parameters were determined at different compound concentrations (e.g., Rh1 and D1: 1 mg/ml and Rh5 and D5: 5 mg/ml, Rh10 and D10: 10 mg/mL) in the same buffer system. The difference of these parameters between low and high peptide concentration is a surrogate for the DLS interaction parameter kD. […] In addition, the hydrodynamic radius Rh and the corresponding Scattering Intensity (%) were determined as an average over duplicates. The target concentration was 300 μM. Therefore, solutions from solid samples were prepared in a buffer system with a concentration of 300 μM compound based on the previously determined % purity.
# DLS measurements were performed on a DynaPro Plate Reader I (Wyatt Technology, Santa Barbara, CA, US) with an 837 nm laser light source at a scattering angle of 150°. The data were collected and processed with Dynamics V 7.8.1.3 or 7.8.2.18 software provided by Wyatt Technology.
# Hydrodynamic radii were determined with non-negatively constrained least squares (NNLS) methods using DYNALS algorithms with regularization fit. […] Samples were tempered over 1 hour at +25° C. and visually inspected before analysis.
# Samples were mixed with the aid of a pipet tip. Measurements were performed in 5 replicates. […] The plate was centrifuged for 2 minutes at 600 rcf. After removing the sealing, the samples were measured at +25° C.
# [7] = biological target: rat CRF2R α receptor (rat, UniProt P47866 20-411); experiment: cell-based or functional assay
# [8] = biological target: T2, endogenous human CRF2 (NCI-H82 cells); experiment: cell-based or functional assay
# [9] = Buffer A: 100 mM acetate buffer, pH 4.5
# [10] = Buffer B: 100 mM acetate buffer, pH 4.5, 2.7 mg/ml m-cresol
Molecule,"EC50 ([1]; 0% HSA, read-out: EC50 [nM], 0% HSA) [nM]","EC50 ([1]; 0.1% HSA, read-out: EC50 [nM], 0.1% HSA) [nM]",EC50 [2] [nM],Relative purity loss [%] [3] [%],solubility at 1 h [4] [µg/mL],"Increase in FI (fluorescence intensity) [5, 9]","Lag time [5, 9] [h]","Increase in FI (fluorescence intensity) [5, 10]","Lag time [5, 10] [h]",Apparent Rh [nm] 0 weeks ([6]; 0 weeks) [nm],Scattering Intensity (I) [%] 0 weeks ([6]; 0 weeks) [%],Apparent Rh [nm] 4 weeks ([6]; 4 weeks at 40° C.) [nm],Scattering Intensity (I) [%] 4 weeks ([6]; 4 weeks at 40° C.) [%],"EC50 [nM], 0% HSA (cAMP, A7R5 cells) [7] [nM]","EC50 [nM] (cAMP, NCI-H82 cells) [8]"
CC[C@H](C)[C@H](N)C(=O)N[C@H](C(=O)N[C@@H](CC(C)C)C(=O)N[C@@H](CO)C(=O)N[C@@H](CC(C)C)C(=O)N[C@@H](CC(=O)O)C(=O)N[C@@H](C(=O)N1CCC[C@H]1C(=O)N[C@H](C(=O)N[C@@H](CCCCN)C(=O)N[C@@H](CC(C)C)C(=O)N[C@@H](CCCCNC(=O)COCCOCCNC(=O)COCCOCCNC(=O)CC[C@H](NC(=O)CCCCCCCCCCCCCCCCC(=O)O)C(=O)O)C(=O)N[C@@H](CCC(N)=O)C(=O)N[C@H](C(=O)N[C@@H](CC(C)C)C(=O)N[C@@H](CC(C)C)C(=O)N[C@@H](CCCCN)C(=O)N[C@@H](CCC(N)=O)C(=O)N[C@@H](C)C(=O)N[C@@H](CCCNC(=N)N)C(=O)N[C@@H](CCC(N)=O)C(=O)N[C@@H](CCCCN)C(=O)NC(C)(C)C(=O)N[C@@H](CCC(N)=O)C(=O)N[C@@H](CCCNC(=N)N)C(=O)N[C@@H](C)C(=O)N[C@@H](CCC(N)=O)C(=O)N[C@@H](C)C(=O)N[C@@H](CCC(=O)O)C(=O)N[C@@H](CCCCN)C(=O)N[C@@H](CC(N)=O)C(=O)N[C@@H](CCCCN)C(=O)N[C@@H](CCCNC(=N)N)C(=O)N[C@H](C(=O)N[C@@H](CC(C)C)C(=O)N[C@@H](CCC(=O)O)C(=O)N[C@@H](CCCNC(=N)N)C(=O)N[C@H](C(N)=O)C(C)C)[C@@H](C)CC)[C@@H](C)CC)[C@@H](C)CC)C(C)C)C(C)C [compound 141] (H-IVLSLD[dV]PIKLK([AEEA-AEEA-γGlu-C18 diacid])QILLKQARQK[Aib]QRAQAEKNKRILERV-NH2),0.03,0.97,0.05,2.90,> 8300,No,>45,No,>45,2.19 ± 0.18,100 ± 1,2.34 ± 0.22,98 ± 2,,
B1,,,,,,,,,,,,,,0.05,12
B2,,,,,,,,,,,,,,,93
